Results published in ChEMBL document CHEMBL5543168, “Discovery of Urea Derivatives of Celastrol as Selective Peroxiredoxin 1 Inhibitors against Colorectal Cancer Cells” (J Med Chem, 2024).
Calls of active or inactive are those of the source. No cut-off for these calls is given here.

Assays:
[1] = Selectivity ratio of IC50 for HEK293T cells to IC50 for human HCT-116 cells; type: functional
[2] = tested on: SW-620; assay: Induction of cell cycle arrest at G2 phase in human SW620 cells at 0.5 uM incubated for 24 hrs by PI staining based flow cytometry (reference value: 6.77 %); type: functional
[3] = tested on: SW-620; assay: Anti-proliferative activity against human SW620 cells xenografted in BALB/c nude mouse at 2 mg/kg, ip qd for 16 days by TUNEL analysis; type: functional, organism-based; conditions: time 16.0 day
[4] = Acute toxicity in C57BL/[…] 6J mouse assessed as animal death at 20 mg/kg, ip measured for 2 weeks; type: organism-based; conditions: in vivo, 336 h
[5] = tested on: SW-620; assay: Induction of cell cycle arrest at S phase in human SW620 cells at 0.5 uM incubated for 24 hrs by PI staining based flow cytometry (reference value: 59.9 %); type: functional
[6] = tested on: SW-620; assay: Antitumor activity against human SW620 cells xenografted in BALB/c nude mouse assessed as nuclear pyknosis in tumor cells at 2 mg/kg, ip qd for 16 days by H and E staining based analysis; type: functional, organism-based; conditions: time 16.0 day
[7] = tested on: SW-620; assay: Antitumor activity against human SW620 cells xenografted in BALB/c nude mouse assessed as decrease in tumor weight at 2 mg/kg, ip qd for 16 days; type: functional, organism-based; conditions: time 16.0 day

## COC(=O)C1(NC(=O)N[C@]2(C)CC[C@]3(C)CC[C@]4(C)C5=CC=C6C(=CC(=O)C(O)=C6C)[C@]5(C)CC[C@@]4(C)[C@@H]3C2)CCC1
[1]
  Selectivity ratio: 2
[2]
  Activity: 7.05%
[3]
  Activity: Active
[4]
  Activity: Non-Toxic
[5]
  Activity: 57.3%
[6]
  Activity: Active
[7]
  Activity: Active
